Data taken from patent US20220049283A1, “Method of detecting SARS-CoV-2 cleavage targeted proprotein convertase and facilitated protease activity” (priority 2020, published 2022).

Test system: SARS-CoV-2 specific substrate (S1/S2 boundary peptide)
Format: biochemical
Settings: substrate 10 ng/well, 25 min incubation, OD 450 nm, FIG. 4

Substance: trypsin
- lowest amount of enzyme from which cleavage activity can be detected: 10 ng
